Patent US6025491A, “Water soluble onium salt of taxo-diterpenoid” (The Scripps Research Institute, priority 1998, dated 2000)
Counter-ions that a name gives are not always drawn. Like-named read-outs stand apart in the source and are kept apart here. Each block holds one compound with its values, some of them ahead of it.

Columns and labels:
[1] = system: A549 non-small cell lung adenocarcinoma xenograft; test: efficacy in lung tumor xenograft nude mouse model; type: in vivo, nude mice (human lung carcinoma xenografts); conditions: I.P. day 1, 3 and 7; taxol 18.0 mg/kg in Cremaphor/D5W; 2 at 23.9 mg/kg
[2] = taxol release / breakdown of taxol-2'-MPT in plasma; type: in vitro ADME, human
Procedure: (§1) Due to a difference in retention time using our standard HPLC conditions (see FIG. 1) and differing ultraviolet absorption maxima (1280 /1254 =1.6 for 2 and 0.3 for 1), the stability of 2 was easily assayed by HPLC (FIG. 1). […] In phosphate buffered saline (PBS) or ammonium acetate--phosphate buffer systems of pH 6.0 to 7.3, 2 is stable at 25° C. for over 21 days. Taxol-2'-MPT (2) is, however, unstable in 5% HCl (pH 1.1) and brine.
(§2) Under these conditions 20% of total is recovered. More particularly, Taxol-2'-MPT (2) was dissolved in the aqueous system with the aid of sonication for five minutes. Aliquots were then removed at the times shown and partitioned into methylene chloride to quench the reaction. Samples were then analyzed using a Waters Maxima HPLC instrument equipped with an autoinjector (3.9×300 mm C18 column equipped with a precolumn. The flow rate was 1.5 mL/minute. The eluent gradient A-B extended over 30 minutes. "A" was 80% 80 mM ammonium acetate, pH 6.0. "B" was 100% methanol. An ultraviolet diode array detector was employed. The ratio of compound 2 (Rf 16.2 min.) to taxol (compound 1, Rf 16.8 min.) remaining was determined from the relative areas of the peaks after normalization with previously determined calibration curves.

[3] = Procedure: The solubility and partition coefficient data for 2 and taxol were determined using an HPLC method.
Solubility was found by forming a solution in water with the aid of sonication for five minutes, centrifugation of the samples, and injection of the supernatant. The values reported were normalized using calibration curves constructed for both compounds by preparing known concentrations in the range 1×10^-6 to 1×10^-3 M in methylene chloride and subjecting to HPLC analysis under the same conditions. […] Partition coefficients were determined by dissolving the compound in the organic phase, shaking the resulting solution with water for ten minutes, and analyzing each phase by HPLC as above.

[4] = self-assembly: optical density at 340 nm and transmission electron microscopy; type: physicochemical
From the text: Transmission electron microscopy (TEM) confirmed the presence of supramolecular structures in these solutions. […] It is likely that the long term stability of these solutions is due, at least in part, to stabilization provided by this structured environment.

cervical carcinoma [5] = system: cervical carcinoma
immunoglobulins = test: displacement of MPT group by immunoglobulins; type: in vitro ADME
From the text: (§3) However, the release of taxol from taxol-2'-MPT can also be catalyzed by serum protein and by proteins having nucleophilic groups. […] Dialysis of the protein:taxol intermediate indicates a dissociation period of hours or days. Displacement of the MPT group by serum proteins seems to be specific for such serum proteins. […] The precise nature of the bonding between the protein and taxol has not been characterized. Scheme 2 illustrates alternative pathways for MPT release.

[6] = kinetics of taxol release from taxol-2'-MPT in aqueous solutions; type: physicochemical; conditions: 25° C.; for taxol release: over 11 minutes
Procedure: as §2

serum protein = test: displacement of MPT group by serum protein, dialysis of protein:taxol intermediate; type: in vitro ADME; conditions: contacted with serum protein
metastatic melanoma [7] = system: metastatic melanoma
non-serum proteins = test: displacement of MPT group by non-serum proteins; type: in vitro ADME; conditions: tested non-serum proteins
From the text: as §3

[8] = stability measurements by HPLC (solid state and aqueous media); type: physicochemical; conditions: for stability duration: pH 6.0 to 7.3, 25° C.
Procedure: as §1, §2

serum albumen = test: displacement of MPT group by serum albumen; type: in vitro ADME
From the text: as §3

tubulin = test: microtubule (tubulin) polymerization-depolymerization measurements; type: biochemical; conditions: for suppression of calcium chloride promoted depolymerization: 10^-6 M drug, 0.25 mM CaCl2, OD 340 nm; for suppression of calcium chloride promoted depolymerization / microtubule polymerization-depolymerization: tubulin 1.0 mg/mL; for microtubule polymerization-depolymerization: 10^-6 drug, 1.0 mM GTP, 0.25 mM CaCl2, 37° C.
Procedure: Tubulin polymerization-depolymerization measurements are illustrate in FIG. 3. Negative controls are shown with triangles; positive taxol controls are shown with diamonds; and taxol-2'-MPT, i.e., compound 2 is shown with dots.
More particularly, measurement were performed in 96 well plates at 37° C. following the protocol of R. Merlock and W. Wrasidlo (Analytical Biochemistry 1993, in press). Calcium chloride addition is indicated by the arrow. In each case, 1.0 mM GTP was used to promote the initial polymerization of tubulin. Negative control employed tubulin (1.0 mg/mL) alone, CaCl2 (0.25 mM) added after 20 minutes. Positive taxol control employed tubulin (1.0 mg/mL) with taxol (10^-6 M) and CaCl2 (0.25 mM) added after 20 minutes. The experimental taxol-2'-MPTemployed tubulin (1.0 mg/mL) with taxol-2'-MPT (10^-6) and CaCl2 (0.25 mM) added after 20 minutes. Turbidity was measured as optical density at 340 nm using a microplate reader (Molecular Devices Thermomax).

human leukemia [9] = system: human leukemia
human leukemia [10] = test: cytotoxicity (XTT), human leukemia
[11] = background statement; cited from earlier work
metastatic melanoma [12] = test: cytotoxicity (XTT), metastatic melanoma
cervical carcinoma [13] = test: cytotoxicity (XTT), cervical carcinoma
[14] = formulated in Cremaphor (polyoxyethylated castor oil) and ethanol; cited from earlier work

breakdown in human plasma ([2]; incubated at 37° C. with human plasma): breaks down rapidly
time to complete conversion of 2 into taxol ([2]; plasma, methylene chloride extraction, 25° C.): ≤ 10 min
taxol discharge in sera ([2]; sera): rapidly discharges taxol in sera
critical concentration for exponential increase in optical density (critical aggregation concentration) ([4]; OD 340 nm, buffered solutions): 400 µM
diameter of fibrillar aggregates ([4]; TEM, fibrillar structure): ca. 80 Å
helical twist of fibrillar aggregates ([4]; TEM, fibrillar structure): about 7
length of fibrillar aggregates ([4]; TEM, fibrillar structure): up to 800 Å
diameter of spherical structures ([4]; TEM, freshly sonicated solutions): about 50 Å
concentration above which haze and diffuse light scattering appear ([4]; buffered solutions): greater than 1×10^-3 M
appearance of water solutions ([4]; water, all concentrations examined): optically clear
effectiveness in displacing the MPT group (immunoglobulins): particularly effective
taxol release ([6]; 5% dextrose): no taxol release is observed
taxol release ([6]; pH 6.2 phosphate buffered saline): no taxol release is observed
taxol release ([6]; sterile water): no taxol release is observed
activity in displacing the MPT group (non-serum proteins): seemed to lack this activity
stability ([8]; 5% HCl (pH 1.1)): unstable
stability duration ([8]; ammonium acetate--phosphate buffer systems): over 21 days
stability ([8]; aqueous media at physiological pH and ion strength): essentially completely stable
stability ([8]; brine): unstable
stability, onset of slow degradation ([8]; in 1.5% saline): > 4 days
stability, onset of slow degradation ([8]; in 5% dextrose): > 4 days
stability, onset of slow degradation ([8]; in water): > 4 days
stability duration ([8]; phosphate buffered saline (PBS)): over 21 days
effectiveness in displacing the MPT group (serum albumen): particularly effective
Compound: CC(=O)O[C@H]1C(=O)[C@@]2(C)[C@H]([C@H](OC(=O)c3ccccc3)[C@]3(O)C[C@H](OC(=O)[C@H](Oc4cccc[n+]4C)[C@@H](NC(=O)c4ccccc4)c4ccccc4)C(C)=C1C3(C)C)[C@]1(OC(C)=O)CO[C@@H]1C[C@@H]2O [taxol-2'-MPT, Taxol-2'-MPT (methylpyridinium tosylate)]
control of tumor growth compared with taxol [1]: at least comparable to that of taxol
solubility in water compared with taxol [3]: significantly more soluble in water than the parent taxol
cytotoxicity level (cervical carcinoma [5]): Extremely high
stability in water and aqueous buffer solutions [6]: stable in water and aqueous buffer solutions
reaction with serum protein (serum protein): observed to displace its MPT group and form a protein:taxol intermediate
cytotoxicity level (metastatic melanoma [7]): Extremely high
suppression of calcium chloride promoted depolymerization (tubulin): not by taxol-2'-MPT
microtubule polymerization-depolymerization (tubulin; listed as 2): does not affect the tubulin-microtubule equilibria
microtubule polymerization-depolymerization (tubulin; listed as taxol-2'-MPT (2)): very similar to GTP-saline controls and drastically different from taxol
binding to tubulin in the manner of taxol (tubulin; buffered aqueous environment): does not appear to bind to tubulin in the manner of taxol
cytotoxicity level (human leukemia [9]): Extremely high

Compound: CC(=O)O[C@H]1C(=O)[C@@]2(C)[C@H]([C@H](OC(=O)c3ccccc3)[C@]3(O)C[C@H](OC(=O)[C@H](O)[C@@H](NC(=O)c4ccccc4)c4ccccc4)C(C)=C1C3(C)C)[C@]1(OC(C)=O)CO[C@@H]1C[C@@H]2O [taxol]
cytotoxicity level (human leukemia [10]): Extremely high
water solubility [11]: less than 1.5×10^-6 M
Partition Coefficient [octanol]/[water] [3]: > 10000
Solubility in Water ([3]; water): < 1.5 µM
cytotoxicity level (metastatic melanoma [12]): Extremely high
cytotoxicity level (cervical carcinoma [13]): Extremely high
side effects of formulation [14]: hypersensitivity reactions
suppression of calcium chloride promoted depolymerization (tubulin): suppressed by taxol
microtubule stabilization by taxol recovered from plasma treated with 2 (tubulin; taxol recovered from human plasma treated with 2): exhibited the expected microtubule stabilization
